From patent US6242478A, “Five member ring sulfenate esters and thiosulfinate esters” (Wake Forest University, priority 1999, dated 2001)
Read-outs that look alike come from different tables or passages of the source.

Assays:
[1] = target: T1, NCp7 (Human immunodeficiency virus type 1 group M subtype B, UniProt P04591); conditions: DFT calculation (Maynard et al., 1998); cited from earlier work
T1 construct: HIV-1 nucleocapsid protein (NCp7)

[2] = tested on: CEM-SS cells; conditions: toxicity, CEM-SS cells; read-out: XTT assay IC50; cited from earlier work
[3] = tested on: fresh human monocyte/macrophage cultures; conditions: toxicity; cited from earlier work
[4] = tested on: HIV-1RF; conditions: cited from earlier work; for EC50: CEM-SS cells, HIV-1RF, read-out: XTT assay EC50; for activity against HIV-1 in XTT-based cytoprotection assay: in words
[5] = tested on: NCp7 protein; conditions: cited from earlier work; for ejection of zinc from NCp7: in words; for TSQ NCp7 Assay: unit not given
[6] = tested on: HIV-1ADA; conditions: fresh human monocyte/macrophage cultures, cited from earlier work; for EC50: HIV-1ADA; for activity against replication of monocytotropic HIV-1ADA: in words
[7] = tested on: CEM-SS cells; assay: XTT assay, toxicity (IC50) in CEM-SS cells; format: cell-based; conditions: for IC50: Homo sapiens, CEM-SS, Table 3, read-out: XTT Anti-HIV-1 Assay IC50
Excerpt: (§1) Both the XTT and monocyte/macrophage assays were used because infection of monocyte/macrophage cultures is thought to resemble infection of the nonproliferating pool of cells in vivo, while the parameters for the CEM-SS cells (XTT assay) are thought to reflect more closely the parameters for highly proliferating cells such as bone marrow and intestinal cells. The CEM-SS cell (XTT) assay is a more sensitive indicator of toxicity and all compounds disclosed herein have been screened in this assay.

[8] = target: T2, NCp7 (Human immunodeficiency virus type 1 group M subtype B, UniProt P12493); assay: NCp7 Trp37 fluorescence decrease assay; format: biochemical, HIV-1; conditions: for NCp7 Trp37 Assay, % Decrease RFU/30 min, without GSH: 50 μM
T2 construct: HIV-1 nucleocapsid protein (NCp7)

[9] = tested on: HIV-1RF; assay: XTT cytoprotection assay, anti-HIV-1 activity (EC50) in CEM-SS cells; format: cell-based
Excerpt: as §1
Based on these preliminary screens, it is contemplated that an aromatic or large substituent at R1 (compare entries 1 & 4, 9 & 10) and a small substituent at R2 (compare entries 1, 2, & 3; 7, 8, & 9) may be best for anti-HIV-1 activity. Sulfur heterocycles containing more than 6 atoms don't appear to be active (entries 13 & 14). […] As observed for 8 previously (Rice et al., 1997), anti-HIV-1 activity and toxicity of 53a went down when treated with 2 equivalents of GSH (entry 6).

[10] = tested on: GST alpha mRNA in BNL.CL2 cells; assay: GST alpha mRNA induction, Northern blot; format: cell-based, mouse; conditions: for GST α induction (mRNA): 80 μM, Northern blot; for GST α induction (mRNA) / activation at 100 µM: 24 hours; for activation at 100 µM: Mus musculus, BNL CL.2, BNL.CL2 cells, 100 micromolar, read-out: increase in GST alpha mRNA levels; for inducing activity (GST, NQO1 and Ferritin H): in words
Method: (§2) BNL.CL2 cells were treated with Oltipraz, compound 121 described above, and compound 123 described above. All compounds were applied to the cells at 100 micromolar concentration for 24 hours.
(§3) Cells were exposed to compounds at a final concentration of 80 μM for 24 hours. RNA was isolated and analyzed by Northern blotting for the expression of the indicated genes. Control cells were incubated with vehicle alone (0.4% DMSO).
(§4) Northern blot: Treatment of BNL.CL2 cells with 100 μM Oltipraz, ALH-556, and ALH-562, ALH-561, ED 13.4, ED 14.6, DCF 070, ALH-490
(§5) BNL.CL2 cells (normal mouse embryonic liver cell line) were plated at ~3×10^5 cells/ml, grown for 16-24 hours, and treated with 0 μM and 100 μM Oltipraz, ALH-556 (121), and ALH-562 (123) for 24 hours. All three compounds were dissolved in DMSO and the final DMSO concentration present in all treatment conditions was 0.2%. BNL.CL2 cells were harvested by trypsinization and total RNA was isolated using the Trizol reagent (Gibco BRL) according to the manufacturer's procedures. 15 μg of RNA were run on a 1.1% agarose/6.6% formaldehyde gel and transferred overnight onto nitrocellulose membranes by capillary transfer using 20×SSC as transfer buffer. Subsequent to RNA transfer, the nitrocellulose membrane was baked at 80° C. for 2 hours. RNA was analyzed using a radiolabeled mouse ferritin H and human GST-α c-DNA. A human β-actin probe was used as an internal standard. The c-DNA probes were labeled with [α^32 P]dCTP by a random prime labeling. Hybridization of the c-DNA probes to the nitrocellulose membrane was performed at 68° C. for 60 minutes using the Quick-Hyb solution (Stratagene). Membranes were subjected to phosphoimager analysis after hybridization.

[11] = tested on: Ferritin H mRNA; assay: Ferritin H mRNA induction, Northern blot; format: cell-based, mouse; conditions: 80 μM, 24 hours
Method: as §2, §3, §4, §5

[12] = tested on: DT-diaphorase (NQO1) mRNA; assay: NQO1 mRNA induction, Northern blot; format: cell-based, mouse; conditions: 80 μM, 24 hours
Method: as §2, §3, §4, §5

[13] = tested on: GST; conditions: mice; cited from earlier work
[14] = tested on: GST; conditions: rats; cited from earlier work
[15] = target: T2, NCp7; conditions: 50 μM, reference compounds; cited from earlier work
[16] = tested on: GST alpha mRNA in BNL.CL2 cells; assay: GST alpha mRNA induction, Northern blot; format: cell-based, mouse; conditions: 48 and 72h post treatment, in words
[17] = tested on: glutathione-S-transferase (GST); conditions: cited from earlier work
[18] = Human immunodeficiency virus 1, CEM-SS, Table 3, read-out: XTT Anti-HIV-1 Assay EC50
[19] = Human immunodeficiency virus 1, CEM-SS, read-out: Maximum cytoprotection

## O=S1(=O)C[C@@H](O)[C@H](O)CS1 (relative stereo) [compound 9]
[1]
  ratio of electronegativity to hardness (.chi.^2 /.eta.): 0.2260
[2]
  IC50: 135 µM
[3]
  IC50: > 100 µM
[4]
  EC50: 13 µM
  activity against HIV-1 in XTT-based cytoprotection assay: active
[5]
  ejection of zinc from NCp7: promoted ejection of zinc
  TSQ NCp7 Assay: 20
[6]
  EC50: 9.1 µM
  activity against replication of monocytotropic HIV-1ADA: active

## NS(=O)(=O)c1ccc(NC(=O)c2ccccc2SSc2ccccc2C(=O)Nc2ccc(S(N)(=O)=O)cc2)cc1 [3, R'=C(O)NH-phenyl-SO2 NH2]
[1]
  ratio of electronegativity to hardness (.chi.^2 /.eta.): 0.2935

## CC(=O)NS(=O)(=O)c1ccc(NC(=O)c2ccccc2SSc2ccccc2C(=O)Nc2ccc(S(=O)(=O)NC(C)=O)cc2)cc1 [3, R'=C(O)NH-phenyl-SO2 NHC(O)CH3]
[1]
  ratio of electronegativity to hardness (.chi.^2 /.eta.): 0.3098

## COC(=O)C1=C(c2ccccc2)[S+]([O-])SC1 (centres unmarked) [53a]
[7]; 2 equivalents of GSH, in words
  toxicity with GSH: went down
[7]
  IC50: 18 µM
[8]; 50 μM with GSH
  NCp7 Trp37 Assay, % Decrease RFU/30 min, with GSH: 16.7 % Decrease RFU/30 min
[8]
  NCp7 Trp37 Assay, % Decrease RFU/30 min, without GSH: 13.5 % Decrease RFU/30 min
[8]; GSH, in words
  zinc ejecting ability with GSH: little effected by GSH
[9]; 2 equivalents of GSH, in words
  anti-HIV-1 activity with GSH: went down
[9]; Human immunodeficiency virus 1, CEM-SS, + GSH, 2 equivalents, read-out: XTT Anti-HIV-1 Assay EC50 with GSH
  EC50: 17.3 µM
[9]; [18]
  EC50: 6 µM
[9]; in words
  EC50 relative to the best dithiane (8, NSC 624151): below that of the best dithiane
  cytoprotection / anti-HIV-1 activity: possess anti-HIV-1 activity

## CCOC(=O)C1=C(c2ccccc2)[S+]([O-])SC1 (centres unmarked) [53b]
[7]
  IC50: 45.7 µM
[8]
  NCp7 Trp37 Assay, % Decrease RFU/30 min, without GSH: 6.5 % Decrease RFU/30 min
[9]; [19]
  Emax at 10 µM: 31.6%

## CC(C)OC(=O)C1=C(c2ccccc2)[S+]([O-])SC1 (centres unmarked) [53c]
[7]
  IC50: 15.2 µM
[8]
  NCp7 Trp37 Assay, % Decrease RFU/30 min, without GSH: 17.1 % Decrease RFU/30 min
[9]; [19]
  Emax at 10 µM: 43.3%

## COC(=O)C1=C(C)[S+]([O-])SC1 (centres unmarked) [53d]
[7]
  IC50: 16.9 µM
[8]
  NCp7 Trp37 Assay, % Decrease RFU/30 min, without GSH: 14.3 % Decrease RFU/30 min
[9]; [19]
  Emax at 10 µM: 41.4%

## CC1=C(C(=O)OC(C)C)CS[S+]1[O-] (centres unmarked) [53e]
[7]
  IC50: 18.4 µM
[8]
  NCp7 Trp37 Assay, % Decrease RFU/30 min, without GSH: 10.4 % Decrease RFU/30 min
[9]; [19]
  Emax at 10 µM: 40%

## CC1=C(c2ccccc2)S(=O)OC1 (centres unmarked) [53f]
[7]
  IC50: 16.9 µM
[8]
  NCp7 Trp37 Assay, % Decrease RFU/30 min, without GSH: 0 % Decrease RFU/30 min
[9]; [18]
  EC50: 5.9 µM
[9]; in words
  EC50 relative to the best dithiane (8, NSC 624151): below that of the best dithiane
  cytoprotection / anti-HIV-1 activity: possess anti-HIV-1 activity

## COC(=O)C1=C(c2ccccc2)S(=O)OC1 (centres unmarked) [53h]
[7]
  IC50: 22.5 µM
[8]
  NCp7 Trp37 Assay, % Decrease RFU/30 min, without GSH: 0 % Decrease RFU/30 min
[9]; [19]
  Emax at 10 µM: 29%

## CCOC(=O)C1=C(c2ccccc2)S(=O)OC1 (centres unmarked) [(8) 53g]
[7]
  IC50: 213 µM
[8]
  NCp7 Trp37 Assay, % Decrease RFU/30 min, without GSH: 26 % Decrease RFU/30 min
[9]; Human immunodeficiency virus 1, CEM-SS, @ 100 μM, read-out: Maximum cytoprotection
  Emax at 100 µM: 12%

## COC(=O)C1=C(C)S(=O)OC1 (centres unmarked) [(10) 53g]
[7]
  IC50: 5.3 µM
[8]
  NCp7 Trp37 Assay, % Decrease RFU/30 min, without GSH: 0.2 % Decrease RFU/30 min
[9]; Human immunodeficiency virus 1, CEM-SS, @ 3.2 μM, read-out: Maximum cytoprotection
  Emax at 3.2 µM: 32.6%

## O=S1(=O)OCC=C1c1ccccc1 [ALH-490]
[10]
  GST α induction (mRNA): +
[11]
  Ferritin H induction (mRNA): +
[12]
  NQO1 induction (mRNA): +

## COC(=O)C1=C(c2ccccc2)[S+]([O-])SC1 (centres unmarked) [DCF 070]
[10]
  GST α induction (mRNA): +
[11]
  Ferritin H induction (mRNA): +
[12]
  NQO1 induction (mRNA): +

## COC(=O)C1=C(C2=CCCCC2)[S+]([O-])SC1 (centres unmarked) [ED 13.4]
[10]
  GST α induction (mRNA): +
[11]
  Ferritin H induction (mRNA): +
[12]
  NQO1 induction (mRNA): +

## CC1=C(C2=CCCCC2)[S+]([O-])SC1 (centres unmarked) [ED 14.6]
[10]
  GST α induction (mRNA): +
[11]
  Ferritin H induction (mRNA): +
[12]
  NQO1 induction (mRNA): +

## NC(=O)c1cccc(N=O)c1 [NOBA, 3-nitrosobenzamide]
[5]
  ejection of zinc from NCp7: reacted with the zinc fingers of NCp7 causing zinc ejection

## C=CCS[S+]([O-])CC=C (centres unmarked) [allicin]
[13]
  elevation of GST levels: elevate levels of GST
[14]
  elevation of GST levels: elevate levels of GST

## O=S1(=O)CC(CO)(CO)CS1 [compound 6]
[2]
  IC50: 200 µM
[4]
  EC50: 34 µM
  activity against HIV-1 in XTT-based cytoprotection assay: active
[5]
  ejection of zinc from NCp7: promoted ejection of zinc
[6]
  activity against replication of monocytotropic HIV-1ADA: active

## CC(=O)OCC1(COC(C)=O)CSS(=O)(=O)C1 [compound 7]
[15]
  NCp7 Trp37 Assay, % Decrease RFU/30 min, without GSH: 18 % Decrease RFU/30 min
[2]
  IC50: 30 µM
[3]
  IC50: > 100 µM
[4]
  EC50: 9.8 µM
  activity against HIV-1 in XTT-based cytoprotection assay: active
[5]
  ejection of zinc from NCp7: promoted ejection of zinc
  TSQ NCp7 Assay: 18
[6]
  EC50: 21 µM
  activity against replication of monocytotropic HIV-1ADA: active

## COc1ccc(C2=C(C)COS2=O)cc1 (centres unmarked) [compound 121, 4-Methyl-5-(4-methoxy)phenyl-1,2-oxathiol-4-en-1-yl Oxide]
[10]
  activation at 100 µM: 300%
  inducing activity (GST, NQO1 and Ferritin H): high levels of inducing activity

## CC1=C(C2=CCCCC2)S(=O)OC1 (centres unmarked) [compound 123, 4-methyl-5-cyclohexenyl-1,2-oxathiol-4-en-1-yl oxide]
[10]
  GST α induction (mRNA): +
  activation at 100 µM: 430%
  inducing activity (GST, NQO1 and Ferritin H): high levels of inducing activity
[16]
  time course of GST levels: slight additional increases in GST levels
[11]
  Ferritin H induction (mRNA): +
[12]
  NQO1 induction (mRNA): +

## N[C@@H](CCC(=O)N[C@@H](CS)C(=O)NCC(=O)O)C(=O)O [glutathione]
[17]; bound to GST
  pKa of the thiol: ~ 6.5
[17]; without enzyme binding
  pKa of the thiol: 9.0

## CC(C)(C)c1cc(O)ccc1O [t-BHQ]
[10]
  GST α induction (mRNA): +
[11]
  Ferritin H induction (mRNA): +
[12]
  NQO1 induction (mRNA): +
